These are literature values, as cited in patent US8044033B2, “Fluorocytidine derivatives and COX-2 inhibitors for the treatment of cancer” (The Board of Regents of the University of Texas System, priority 2006, dated 2011).

Where two headings read alike, the source gives them in different places.

Data set [1] concerns metastatic colorectal cancer.
[2] abbreviates: First-line therapy, no radiation, cross-study comparison.
Setting [3] is: first-line treatment of metastatic colorectal cancer.

As to `CCCCCOC(=O)Nc1nc(=O)n([C@@H]2O[C@H](C)[C@@H](O)[C@H]2O)cc1F` [Capecitabine, capecitabine], in data set [1] (setting [2]), the “Complete response (%)” value is recorded as 1% and the “Median OS (months)” value was 12.4-13.2 months. For the same compound, the “Median OS (months)” value in data set [1] (Second-line therapy, no radiation, cross-study comparison) is given as 12.7 months. Moreover, in data set [1] (setting [3]), the overall survival was 12 months and the response rate is listed as 25%. Besides, in data set [1] (monotherapy), the “time to tumor progression in half of the patients” value is 2-4 months. For the setting “1250 mg/m2/day bid for two weeks every 3 weeks”, the “incidence of hand-foot syndrome (HFS)” value is reported as 54%. The “incidence of grade 2/3 HFS” value (earlier study, capecitabine dose 1000 mg/m2/d bid (Lin et al., 2002)) was 34.2%.
